Values joined by “and” are separate entries in the source; they are usually repeats but may differ in a detail not shown here. Identical values can stand only once.
Tests used:
[1] = Aqueous solubility observed on testing; format: physicochemical; conditions: stated on testing
[2] = biological target: T1, PNCK Nano-luciferase fusion (Homo sapiens, UniProt Q6P2M8); assay: NanoBRET Target Engagement Intracellular Kinase Assay, cell-based PNCK binding screen and dose response in HEK293 cells; conditions: for inhibition at 1 µM: compound 1uM, read-out: Avg. Normalized % Inhibition, 1uM, Nanobret; for inhibition at 1 µM / inhibition at 10 µM: K10 tracer 1uM, normalized to staurosporine and DMSO; for inhibition at 10 µM: compound 10uM, read-out: Avg. Normalized % Inhibition, 10uM, Nanobret
T1 construct: host or cells: HEK293
T1 sequence (Q6P2M8 whole entry, the tested form may be a part): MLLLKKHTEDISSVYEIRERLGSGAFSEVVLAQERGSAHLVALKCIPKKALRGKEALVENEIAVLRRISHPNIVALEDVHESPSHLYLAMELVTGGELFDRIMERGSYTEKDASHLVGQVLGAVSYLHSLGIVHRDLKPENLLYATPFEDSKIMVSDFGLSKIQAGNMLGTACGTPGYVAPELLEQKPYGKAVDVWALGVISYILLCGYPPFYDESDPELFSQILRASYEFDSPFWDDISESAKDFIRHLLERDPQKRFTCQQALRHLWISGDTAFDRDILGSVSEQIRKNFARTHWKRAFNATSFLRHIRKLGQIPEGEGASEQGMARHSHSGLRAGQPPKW

[3] = biological target: T1, PNCK Nano-luciferase fusion; assay: as above

Row | SMILES | aqueous solubility [1] | inhibition at 1 µM ([2]; HEK293) | inhibition at 10 µM ([2]; HEK293) | IC50 ([2]; 8-point concentration-response, HEK293) | Dose-Response Curve Data (NanoBRET signal, replicates) ([2]; Concentration 1.25E-06 M) | Dose-Response Curve Data (NanoBRET signal, replicates) ([2]; Concentration 2.00E-05 M) | Dose-Response Curve Data (NanoBRET signal, replicates) ([2]; Concentration 2.50E-06 M) | Dose-Response Curve Data (NanoBRET signal, replicates) ([2]; Concentration 5.00E-06 M) | Dose-Response Curve Data (NanoBRET signal, replicates) ([2]; Concentration 6.25E-07 M) | NanoBRET binding, result in words ([2]; cell-based screen / comparison with parent hit) | Dose-Response Curve Data (NanoBRET signal, replicates) ([3]; Concentration 1.00E-05 M) | Dose-Response Curve Data (NanoBRET signal, replicates) ([3]; Concentration 1.56E-07 M) | Dose-Response Curve Data (NanoBRET signal, replicates) ([3]; Concentration 3.13E-07 M)
1 | Cc1ccc(C)c(OCc2nc(-c3cccnn3)no2)c1C [UM_245] | poor aqueous solubility | – | – | – | – | – | – | – | – | – | – | – | –
2 | Oc1c(/C=N/c2ccc(Br)cn2)sc2ccccc12 [UM_234] | poor aqueous solubility | 5.92% | 17.1% | – | – | – | – | – | – | – | – | – | –
3 | CC1CCc2c(sc(NC(=O)CSc3ncc(-c4ccc(F)cc4)[nH]3)c2C(N)=O)C1 (stereo not shown) [UM_252] | – | 49.9% | 79.1% | 1090 nM | 5.69 and 4.76 and 5.57 and 5.29 and 6.48 | 4.90 and 5.31 and 5.12 and 5.26 and 5.44 | 5.05 and 5.03 and 4.81 and 5.42 and 6.45 | 4.80 and 4.70 and 5.14 and 6.28 and 5.58 | 5.77 and 5.39 and 5.91 and 7.06 and 6.32 | improving from the IC50 of UM_228 by one order of magnitude | 5.51 and 5.44 and 5.21 and 5.32 and 4.78 | 6.58 and 6.82 and 6.54 and 7.24 and 6.53 | 6.79 and 6.18 and 7.47 and 6.16 and 7.19

From PMC10249896, “AI-Assisted chemical probe discovery for the understudied Calcium-Calmodulin Dependent Kinase, PNCK” (PLOS Computational Biology, 2023)
